Results taken from US12617813B2, “Glycosylated histone deacetylase inhibitors and methods of making and using the same” (Georgia Tech Research Corporation, priority 2020, dated 2026).

Experiments:
Vero cell line = assay: Apoptosis via caspase 3 activation (Western blot) in Vero; assay type: cell-based; settings: Vero (non-transformed model), 18 h; STR compounds 10 and 20 μM, SAHA 5 μM (FIG. 3)
Description: Actin was used to control for protein loading. Cells were treated with DMSO or 0.1% DMSO solution of SAHA (5 μM), STR-V-53 (10 and 20 μM), or STR-I-195 (10 and 20 μM) for 18 h. Quantification of gel bands are shown below the gel.

HDAC2 = HDAC2 (Homo sapiens, UniProt Q92769); assay: HDAC inhibition, HDAC2; assay type: biochemical
HDAC2, sequence (Q92769 whole entry): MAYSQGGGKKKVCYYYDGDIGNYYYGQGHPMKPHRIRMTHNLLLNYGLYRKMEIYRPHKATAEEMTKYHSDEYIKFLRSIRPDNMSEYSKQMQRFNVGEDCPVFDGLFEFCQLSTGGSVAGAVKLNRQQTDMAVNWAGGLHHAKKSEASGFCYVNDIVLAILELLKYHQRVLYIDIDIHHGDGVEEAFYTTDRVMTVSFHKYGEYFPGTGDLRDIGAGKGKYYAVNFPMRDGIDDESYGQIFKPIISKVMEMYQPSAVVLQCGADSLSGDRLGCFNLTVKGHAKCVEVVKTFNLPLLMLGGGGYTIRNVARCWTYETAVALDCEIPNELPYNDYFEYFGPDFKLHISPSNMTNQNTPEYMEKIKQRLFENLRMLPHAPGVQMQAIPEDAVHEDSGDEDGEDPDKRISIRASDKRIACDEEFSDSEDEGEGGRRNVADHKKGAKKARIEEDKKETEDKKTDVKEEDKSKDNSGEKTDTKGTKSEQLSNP

HDAC8 = target: T1, HDAC8 (Homo sapiens, UniProt Q9BY41); assay: HDAC inhibition, HDAC8; assay type: biochemical
T1 sequence (Q9BY41 1-377): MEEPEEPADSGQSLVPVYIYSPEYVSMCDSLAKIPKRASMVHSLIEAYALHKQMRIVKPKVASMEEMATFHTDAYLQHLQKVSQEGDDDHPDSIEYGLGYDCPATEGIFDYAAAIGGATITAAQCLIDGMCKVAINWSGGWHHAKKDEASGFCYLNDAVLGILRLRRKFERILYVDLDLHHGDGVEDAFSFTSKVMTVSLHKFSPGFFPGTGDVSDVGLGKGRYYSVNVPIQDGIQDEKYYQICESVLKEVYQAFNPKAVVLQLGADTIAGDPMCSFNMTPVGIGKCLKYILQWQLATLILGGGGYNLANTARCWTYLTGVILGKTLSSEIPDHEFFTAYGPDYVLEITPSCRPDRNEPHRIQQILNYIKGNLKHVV

HDAC1 = HDAC1 (Homo sapiens, UniProt Q13547); assay: HDAC inhibition, HDAC1; assay type: biochemical
HDAC1, sequence (Q13547 whole entry): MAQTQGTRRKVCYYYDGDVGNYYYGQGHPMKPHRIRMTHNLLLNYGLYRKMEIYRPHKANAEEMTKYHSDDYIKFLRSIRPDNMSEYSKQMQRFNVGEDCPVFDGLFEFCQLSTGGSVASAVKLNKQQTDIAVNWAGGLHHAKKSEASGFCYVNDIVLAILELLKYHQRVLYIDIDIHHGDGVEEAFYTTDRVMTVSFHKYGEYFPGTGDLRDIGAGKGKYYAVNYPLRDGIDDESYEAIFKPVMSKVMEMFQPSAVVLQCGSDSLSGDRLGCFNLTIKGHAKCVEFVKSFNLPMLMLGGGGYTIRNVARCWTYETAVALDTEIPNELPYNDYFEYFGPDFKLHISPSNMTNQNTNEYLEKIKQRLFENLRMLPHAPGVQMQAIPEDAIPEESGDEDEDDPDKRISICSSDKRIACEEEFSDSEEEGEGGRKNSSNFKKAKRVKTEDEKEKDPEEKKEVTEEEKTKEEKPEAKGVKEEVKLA

HDAC6 = target: T2, HDAC6 (Homo sapiens, UniProt Q9UBN7); assay: HDAC inhibition, HDAC6; assay type: biochemical
T2 sequence (Q9UBN7 1-1215): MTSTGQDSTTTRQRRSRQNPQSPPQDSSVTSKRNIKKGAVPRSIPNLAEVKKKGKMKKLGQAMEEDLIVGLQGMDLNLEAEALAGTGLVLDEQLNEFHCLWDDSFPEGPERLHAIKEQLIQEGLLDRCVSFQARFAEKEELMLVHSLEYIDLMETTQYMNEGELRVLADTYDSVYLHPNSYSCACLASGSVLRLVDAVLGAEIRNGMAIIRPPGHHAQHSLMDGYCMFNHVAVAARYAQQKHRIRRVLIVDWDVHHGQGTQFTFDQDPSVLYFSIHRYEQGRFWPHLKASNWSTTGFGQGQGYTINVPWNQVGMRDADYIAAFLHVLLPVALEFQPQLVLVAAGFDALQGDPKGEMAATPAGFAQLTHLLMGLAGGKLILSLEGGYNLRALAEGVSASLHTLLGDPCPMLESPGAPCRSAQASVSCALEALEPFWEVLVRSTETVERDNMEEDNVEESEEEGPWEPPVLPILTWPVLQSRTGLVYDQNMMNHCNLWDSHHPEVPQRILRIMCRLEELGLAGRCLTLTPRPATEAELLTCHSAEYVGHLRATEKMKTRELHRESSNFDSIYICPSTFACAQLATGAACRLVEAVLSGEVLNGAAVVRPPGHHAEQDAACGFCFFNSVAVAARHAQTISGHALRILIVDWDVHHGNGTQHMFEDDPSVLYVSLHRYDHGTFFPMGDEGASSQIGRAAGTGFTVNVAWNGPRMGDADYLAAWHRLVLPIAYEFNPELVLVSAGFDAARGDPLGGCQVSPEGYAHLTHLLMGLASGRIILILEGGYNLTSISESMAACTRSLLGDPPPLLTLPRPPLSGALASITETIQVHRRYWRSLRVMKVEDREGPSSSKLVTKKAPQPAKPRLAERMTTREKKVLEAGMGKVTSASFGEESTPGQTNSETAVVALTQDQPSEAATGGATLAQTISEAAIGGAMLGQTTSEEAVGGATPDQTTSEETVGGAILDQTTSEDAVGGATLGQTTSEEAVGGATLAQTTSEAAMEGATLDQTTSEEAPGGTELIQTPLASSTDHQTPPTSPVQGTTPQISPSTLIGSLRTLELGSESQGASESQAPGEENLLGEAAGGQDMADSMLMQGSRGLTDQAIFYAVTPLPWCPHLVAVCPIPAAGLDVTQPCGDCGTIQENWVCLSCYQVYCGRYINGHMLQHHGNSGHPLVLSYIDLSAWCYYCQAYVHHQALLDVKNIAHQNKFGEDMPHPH

[1] = test system: acetylated tubulin and histone H4; assay: Western blot of on-target effect (HDAC inhibition) in Hep-G2 cells; assay type: cell-based; settings: Hep-G2, 1.25 and 2.5 μM, 5 h, Western blot (FIG. 1)
Description: SAHA was used as positive control while GAPDH was used to control for protein loading. (1a) Hep-G2 treated with DMSO or 0.1% DMSO solution of SAHA (1.25 μM), STR-V-114 (1.25 μM, 2.5 μM) and STR-V-53 (1.25 μM, 2.5 μM). (1b) Hep-G2 treated with DMSO or 0.1% DMSO solution of SAHA (0.5 μM, 1.25 μM) and STR-I-195 (1.25 μM, 2.5 μM). Cell were treated for 5 h before lysis. Quantifications of gel bands are shown below each gel.

Hep-G2 cell line = assay: Apoptosis via caspase 3 activation (Western blot) in Hep-G2; assay type: cell-based; settings: Hep-G2, 18 h; STR compounds 10 and 20 μM, SAHA 5 μM (FIG. 2)
Description: Actin was used to control for protein loading. Cells were treated with DMSO or 0.1% DMSO solution of SAHA (5 μM), STR-V-53 (10 and 20 μM), or STR-I-195 (10 and 20 μM) for 18 h. (a) Cropped gel image showing upregulation on cleaved caspase 3 (clv-caspase 3) relative to the DMSO control. (b) Quantification of relative levels of clv-caspase 3. (Bars show mean plus standard deviation; *P<0.0332; **P<0.0021; ***P<0.0002; ****P<[…]).

Hep-G2 [2] = assay: Cell cycle analysis in Hep-G2; assay type: cell-based; settings: Hep-G2, 15 μM, 48 h (FIG. 4)
Description: Hep-G2 was cultured in all) cm petri dish until 80% confluence. The cell was serum starved overnight before drug treatment. Subsequently, cells were treated with 10 mL of 0.1% DMSO medium, 0.1% DMSO solution of SAHA (5 μM) or STR-V-53 (15 μM), respectively for 48 h. (a) The control group of Hep-G2 (1); SAHA (5 μM) treated group (2); and STR-V-53 (15 μM) treated group (3). […] (b) Cell distribution in each stage. (c) Analysis of the percentage cell population in cell cycle stages.

Hep-G2 [3] = assay: Cytotoxicity with GLUT2 blockage by Phloretin in Hep-G2; assay type: cell-based; settings: Hep-G2 treated with Phloretin 24 h prior to incubation (FIG. 5)
Description: Hep-G2 and VERO were treated with Phloretin (Ph) for 24 h prior to incubation with STR-V-53 or SAHA. (a) Hep-G2 treated by STR-V-53 with or without Ph. (b) Hep-G2 treated by SAHA with or without Ph. (c) VERO treated by STR-V-53 with or without Ph. (d) VERO treated with SAHA with or without Ph.

| IC50 (HDAC2) [nM] | IC50 (HDAC8) [nM] | IC50 (HDAC1) [nM] | IC50 (HDAC6) [nM] | Structure (SMILES) | apoptosis (clv-caspase 3) (Vero cell line) | on-target effect (HDAC inhibition): acetylated tubulin and histone H4 levels [1] | apoptosis via caspase 3 activation (clv-caspase 3) (Hep-G2 cell line) | effect on cell cycle (Hep-G2 [2]) | effect of GLUT2 blockage on cytotoxicity (Hep-G2 [3]) |
| --- | --- | --- | --- | --- | --- | --- | --- | --- | --- |
| 29.1 | 464 | 14.6 | 2.51 | O=C(CCCCCCn1cc(-c2ccc(OC3O[C@H](CO)[C@@H](O)[C@H](O)C3O)cc2)nn1)NO (stereo in doubt) [STR-I-195, N-hydroxy-7-(4-(4-(((2S,3R,4S,5S,6R)-3,4,5-trihydroxy-6-(hydroxymethyl)-tetrahydro-2H-pyran-2-yl)oxy)phenyl)-1H-1,2,3-triazol-1-yl)heptanamide] | did not induce apoptosis | upregulation of acetylated tubulin and histone H4 | induced apoptosis | – | – |
| – | – | – | – | O=C(CCCCCCC(=O)Nc1ccccc1)NO [SAHA, reference compound] | induced apoptosis | – | induced apoptosis | – | – |
| 61.5 | 2130 | 20.3 | 4.5 | O=C(CCCCCCn1cc(-c2ccc3cc(O[C@H]4O[C@H](CO)[C@@H](O)[C@H](O)[C@H]4O)ccc3c2)nn1)NO [STR-V-114, N-hydroxy-7-(4-(6-(((2R,3R,4S,5S,6R)-3,4,5-trihydroxy-6-(hydroxymethyl)-tetrahydro-211-pyran-2-yl)oxy)naphthalen-2-yl)-1H-1,2,3-triazol-1-yl)heptanamide] | – | upregulation of acetylated tubulin and histone H4 | – | – | – |

| Structure (SMILES) | IC50 (HDAC2) [nM] | IC50 (HDAC8) [nM] | IC50 (HDAC1) [nM] | IC50 (HDAC6) [nM] | apoptosis (clv-caspase 3) (Vero cell line) | on-target effect (HDAC inhibition): acetylated tubulin and histone H4 levels [1] | apoptosis via caspase 3 activation (clv-caspase 3) (Hep-G2 cell line) | effect on cell cycle (Hep-G2 [2]) | effect of GLUT2 blockage on cytotoxicity (Hep-G2 [3]) |
| --- | --- | --- | --- | --- | --- | --- | --- | --- | --- |
| O=C(CCCCCCn1cc(-c2ccc(O[C@H]3O[C@H](CO)[C@@H](O)[C@H](O)[C@H]3O)cc2)nn1)NO [STR-V-53] | 60.1 | 843 | 24.3 | 3.43 | did not induce apoptosis | upregulation of acetylated tubulin and histone H4 | induced apoptosis | cell cycle arrest | attenuates the cytotoxicity |
